The experiment addresses T1, HEK cells stably transfected with tetracycline inducible hNR1 and hNR2A (Homo sapiens, UniProt Q05586+Q12879).
T1 construct: expressed in transfected cells; host or cells: HEK cells, stably transfected, tetracycline/doxycycline inducible
Description: Assay 1: Cell-Based Assay, cytosolic calcium response to positive allosteric modulators (with 30 μM glycine and 300 nM L-glutamate, EC30). Conditions: for EC50: cytosolic calcium response, with 30 μM glycine and 300 nM L-glutamate (EC30), — = no plateau was reached; for Max %: responses scaled relative to 100 μM L-glutamate maximal response (100%) and 0 μM L-glutamate (0%). In outline:
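Cells induced 24 h with 7.5 μg mL^−1 doxycycline plus 500 μM (+)-ketamine, loaded 60 min at 37 °C with calcium dye in Mg-free HBSS (1.8 mM Ca, probenecid, 10 μM (+)-ketamine, pH 7.15). Peak RFU over 5 min after compound addition, scaled to 100 μM L-glutamate (100%) and 0 μM (0%); four-parameter Hill fit for EC50, max % if no plateau.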

Structures are written as SMILES.

What is called EC50 is the midpoint of the concentration-response curve.

T1 sequence (Q12879 23-1464, other chains not shown): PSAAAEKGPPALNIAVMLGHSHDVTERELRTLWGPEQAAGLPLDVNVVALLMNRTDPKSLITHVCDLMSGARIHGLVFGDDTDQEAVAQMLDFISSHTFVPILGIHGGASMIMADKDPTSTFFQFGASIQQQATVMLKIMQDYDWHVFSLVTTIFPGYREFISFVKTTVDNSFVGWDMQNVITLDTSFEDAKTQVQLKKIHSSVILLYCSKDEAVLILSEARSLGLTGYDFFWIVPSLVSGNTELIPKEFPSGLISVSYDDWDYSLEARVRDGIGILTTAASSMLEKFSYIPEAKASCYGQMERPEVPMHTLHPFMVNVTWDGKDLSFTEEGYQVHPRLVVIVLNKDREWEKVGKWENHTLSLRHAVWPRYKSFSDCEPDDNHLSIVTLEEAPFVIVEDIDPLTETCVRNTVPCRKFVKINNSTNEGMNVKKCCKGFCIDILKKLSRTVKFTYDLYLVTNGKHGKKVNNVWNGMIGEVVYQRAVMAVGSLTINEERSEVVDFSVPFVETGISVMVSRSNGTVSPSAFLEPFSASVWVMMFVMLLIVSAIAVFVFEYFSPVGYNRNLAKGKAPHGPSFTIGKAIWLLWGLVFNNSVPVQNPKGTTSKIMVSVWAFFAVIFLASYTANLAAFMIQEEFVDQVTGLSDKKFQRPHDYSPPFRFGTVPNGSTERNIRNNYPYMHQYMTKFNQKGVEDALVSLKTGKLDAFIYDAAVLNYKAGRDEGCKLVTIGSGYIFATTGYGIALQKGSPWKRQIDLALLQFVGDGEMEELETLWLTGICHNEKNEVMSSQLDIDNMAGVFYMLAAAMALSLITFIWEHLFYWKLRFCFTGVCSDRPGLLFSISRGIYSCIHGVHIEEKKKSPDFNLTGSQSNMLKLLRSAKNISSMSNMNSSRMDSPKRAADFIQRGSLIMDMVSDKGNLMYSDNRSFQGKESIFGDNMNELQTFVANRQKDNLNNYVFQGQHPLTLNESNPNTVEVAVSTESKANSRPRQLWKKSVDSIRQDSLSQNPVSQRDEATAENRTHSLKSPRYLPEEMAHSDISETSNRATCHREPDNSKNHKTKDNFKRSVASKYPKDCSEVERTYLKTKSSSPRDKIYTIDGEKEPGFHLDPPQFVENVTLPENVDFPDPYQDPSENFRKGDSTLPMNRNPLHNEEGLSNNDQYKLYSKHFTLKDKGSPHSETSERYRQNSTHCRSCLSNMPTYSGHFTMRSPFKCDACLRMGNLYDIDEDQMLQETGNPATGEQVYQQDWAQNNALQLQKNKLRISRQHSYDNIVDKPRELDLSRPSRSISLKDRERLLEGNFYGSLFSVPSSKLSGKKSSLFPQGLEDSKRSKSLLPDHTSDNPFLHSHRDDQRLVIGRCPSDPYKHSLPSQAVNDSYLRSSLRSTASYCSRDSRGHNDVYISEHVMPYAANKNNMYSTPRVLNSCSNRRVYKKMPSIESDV

Regarding `CCN(Cc1cc(=O)n2c(-c3cncnc3)c(C)sc2n1)c1cccc(F)c1` [Example 5.5, 7-((ethyl(3-fluorophenyl)amino)methyl)-2-methyl-3-(pyrimidin-5-yl)-5H-thiazolo[3,2-a]pyrimidin-5-one], where the note is “Table 2”, the EC50 is 2400 nM and the Max % is 168%.

On to `O=c1cc(Cn2nc(C(F)(F)F)cc2Cl)nc2sc(C(F)(F)F)c(N3CCC3)n12` [compound 206, 3-(Azetidin-1-yl)-7-[[5-chloro-3-(trifluoromethyl)pyrazol-1-yl]methyl]-2-(trifluoromethyl)thiazolo[3,2-a]pyrimidin-5-one], for which the EC50 (Table 3) is 7190 nM.

On to `CCc1sc2nc(Cn3nc(C(F)(F)F)cc3Cl)cc(=O)n2c1C1CC1C#N` (stereo not shown) [compound 213, 2-[7-[[5-chloro-3-(trifluoromethyl)pyrazol-1-yl]methyl]-2-ethyl-5-oxo-thiazolo[3,2-a]pyrimidin-3-yl]cyclopropanecarbonitrile], for which the EC50 (Table 3) was determined as 66 nM.

`Cc1sc2nc(Cn3ncc4ccccc43)cc(=O)n2c1-c1cncnc1` [Example 15.34, 7-((1H-indazol-1-yl)methyl)-2-methyl-3-(pyrimidin-5-yl)-5H-thiazolo[3,2-a]pyrimidin-5-one]: the Max % (Table 2) was 48.2%.

As for `CCNC(=O)c1c(C(F)(F)F)sc2nc(Cn3nc(Cl)cc3C(F)(F)F)cc(=O)n12` [compound 44, 7-[[3-chloro-5-(trifluoromethyl)pyrazol-1-yl]methyl]-N-ethyl-5-oxo-2-(trifluoromethyl)thiazolo[3,2-a]pyrimidine-3-carboxamide], for the setting “Table 3”, the concentration for a half-maximal effect (EC50) turned out to be 685 nM.

Regarding `Cc1sc2nc(Cn3nc(Cl)cc3C(F)(F)F)cc(=O)n2c1C1CCC1` [compound 189, 7-[[3-chloro-5-(trifluoromethyl)pyrazol-1-yl]methyl]-3-cyclobutyl-2-methyl-thiazolo[3,2-a]pyrimidin-5-one], the EC50 (Table 3) was 7450 nM.

As to `Cc1sc2nc(Cc3cccc(C#N)c3F)cc(=O)n2c1C1CC1` [Example 24.4, 3-((3-cyclopropyl-2-methyl-5-oxo-5H-thiazolo[3,2-a]pyrimidin-7-yl)methyl)-2-fluorobenzonitrile], the EC50 (Table 2) came out at 15300 nM.

As to `CNC(=O)c1c(C)sc2nc(Cc3cccc(F)c3F)cc(=O)n12` [Example 21.55, 7-[(2,3-difluorophenyl)methyl]-N,2-dimethyl-5-oxo-thiazolo[3,2-a]pyrimidine-3-carboxamide], the Max % (Table 2) is on record as 43.8%.

As to `Cc1sc2nc(Cc3cccc(C#N)c3)cc(=O)n2c1C1CC1CO` (stereo not drawn) [Example 20.1, 3-((3-(trans-2-(hydroxymethyl)cyclopropyl)-2-methyl-5-oxo-5H-thiazolo[3,2-a]pyrimidin-7-yl)methyl)benzonitrile], for the setting “Table 2”, the EC50 amounted to 3100 nM and the Max % is on record as 137%.

`Cc1sc2nc(Cn3nc(C(F)(F)F)cc3Cl)cc(=O)n2c1-c1ncc[nH]1` [compound 170, 7-[[5-chloro-3-(trifluoromethyl)pyrazol-1-yl]methyl]-3-(1H-imidazol-2-yl)-2-methyl-thiazolo[3,2-a]pyrimidin-5-one]: for the setting “Table 3”, the EC50 was 814 nM.

Consider `CCN(Cc1cc(=O)n2c3c(sc2n1)CCC3)c1ccc(F)cc1` [Example 8.1, 6-[(N-ethyl-4-fluoro-anilino)methyl]-2,3-dihydro-1H-cyclopenta[3,4]thiazolo[1,4-a]pyrimidin-8-one], for which, under “Table 2”, the EC50 is 5200 nM and the Max % amounted to 146%.

In the case of `COc1sc2nc(Cn3nc(Cl)cc3C(F)(F)F)cc(=O)n2c1Cl` [compound 218, 3-chloro-7-[[3-chloro-5-(trifluoromethyl)pyrazol-1-yl]methyl]-2-methoxy-thiazolo[3,2-a]pyrimidin-5-one], where the note is “Table 3”, the EC50 turned out to be 83000 nM.

`C=C(CF)c1cccc(Cc2cc(=O)n3c(C(=O)NCC)c(C)sc3n2)c1F` [compound 36, N-ethyl-7-[[2-fluoro-3-[1-(fluoromethyl)vinyl]phenyl]methyl]-2-methyl-5-oxo-thiazolo[3,2-a]pyrimidine-3-carboxamide]: the EC50 (Table 3) came out at 1720 nM.

Take `O=c1cc(Cn2nc(C(F)(F)F)cc2Cl)nc2sc(C(F)(F)F)c(-c3cncc(F)c3)n12` [compound 249, 7-[[5-chloro-3-(trifluoromethyl)pyrazol-1-yl]methyl]-3-(5-fluoro-3-pyridyl)-2-(trifluoromethyl)thiazolo[3,2-a]pyrimidin-5-one]: the EC50 (Table 3) worked out at 6330 nM.

For `CNC(=O)Cc1c(C(F)(F)F)sc2nc(Cn3nc(C(F)(F)F)cc3C3CC3)cc(=O)n12` [compound 78, 2-[7-[[5-cyclopropyl-3-(trifluoromethyl)pyrazol-1-yl]methyl]-5-oxo-2-(trifluoromethyl)thiazolo[3,2-a]pyrimidin-3-yl]-N-methyl-acetamide], under “Table 3”, the concentration giving a half-maximal response (EC50) was determined as 2960 nM.

Turning to `CCNC(=O)c1c(C)sc2nc(CN(CC)c3ccc(Br)cn3)cc(=O)n12` [compound 204, 7-[[(5-bromo-2-pyridyl)-ethyl-amino]methyl]-N-ethyl-2-methyl-5-oxo-thiazolo[3,2-a]pyrimidine-3-carboxamide], for the setting “Table 3”, the EC50 was found to be 5120 nM.

With `O=c1cc(Cn2nc(C(F)(F)F)cc2Cl)nc2sc(C(F)(F)F)c(-c3cncc(Cl)c3)n12` [compound 255, 3-(5-chloro-3-pyridyl)-7-[[5-chloro-3-(trifluoromethyl)pyrazol-1-yl]methyl]-2-(trifluoromethyl)thiazolo[3,2-a]pyrimidin-5-one], the EC50 (Table 3) is 7860 nM.

In the case of `CNC(=O)Cc1c(C)sc2nc(Cc3cccc(C4CC4)c3F)cc(=O)n12` [compound 11, 2-[7-[(3-cyclopropyl-2-fluoro-phenyl)methyl]-2-methyl-5-oxo-thiazolo[3,2-a]pyrimidin-3-yl]-N-methyl-acetamide], where the note is “Table 3”, the half-maximal effective concentration (EC50) was 1140 nM.

As to `CCN(C)C(=O)c1c(C)sc2nc(Cc3cccc(C(F)(F)F)c3F)cc(=O)n12` [Example 22.2, N-ethyl-7-(2-fluoro-3-(trifluoromethyl)benzyl)-N,2-dimethyl-5-oxo-5H-thiazolo[3,2-a]pyrimidine-3-carboxamide], the Max % (Table 2) was 41.4%.

Regarding `CNC(=O)c1c(C)sc2nc(Cc3ccc(Cl)cc3C)cc(=O)n12` [Example 21.41, 7-(4-chloro-2-methylbenzyl)-N,2-dimethyl-5-oxo-5H-thiazolo[3,2-a]pyrimidine-3-carboxamide], for the setting “Table 2”, the Max % is recorded as 59.7%.

Take `CNC(=O)c1c(C)sc2nc(Cc3ccc(F)cc3C3CC3)cc(=O)n12` [Example 21.60, 7-[(2-cyclopropyl-4-fluoro-phenyl)methyl]-N,2-dimethyl-5-oxo-thiazolo[3,2-a]pyrimidine-3-carboxamide]: the Max % (Table 2) is given as 78%.

As for `Cc1sc2nc(Cn3nc(Cl)cc3C(F)(F)F)cc(=O)n2c1C#N` [compound 115, 7-[[3-chloro-5-(trifluoromethyl)pyrazol-1-yl]methyl]-2-methyl-5-oxo-thiazolo[3,2-a]pyrimidine-3-carbonitrile], the EC50 (Table 3) turned out to be 2750 nM.

Consider `Cc1sc2nc(Cn3nc(C(F)(F)F)cc3Cl)cc(=O)n2c1CC1CC1` [compound 221, 7-[[5-chloro-3-(trifluoromethyl)pyrazol-1-yl]methyl]-3-(cyclopropylmethyl)-2-methyl-thiazolo[3,2-a]pyrimidin-5-one], for which the concentration giving a half-maximal response (EC50) (Table 3) turned out to be 3760 nM.

On to `Cc1sc2nc(Cn3nc(C(F)(F)F)cc3Cl)cc(=O)n2c1C1CC1CO` (single isomer, unassigned) [compound 136], for which the EC50 (Table 3) is 39.1 nM.

Regarding `CCNC(=O)c1c(C)sc2nc(Cn3nc(Cl)cc3C(F)(F)F)cc(=O)n12` [compound 29, 7-[[3-chloro-5-(trifluoromethyl)pyrazol-1-yl]methyl]-N-ethyl-2-methyl-5-oxo-thiazolo[3,2-a]pyrimidine-3-carboxamide], the EC50 (Table 3) was found to be 1760 nM.

With `CCN(Cc1cc(=O)n2c(CSC)c(C)sc2n1)c1ccc(F)cc1` [Example 10.25, 7-((ethyl(4-fluorophenyl)amino)methyl)-2-methyl-3-((methylthio)methyl)-5H-thiazolo[3,2-a]pyrimidin-5-one], under “Table 2”, the EC50 turned out to be 345 nM and the Max % came to 165%.

For `CCNC(=O)c1c(C(F)(F)F)sc2nc(Cn3nc(C(F)(F)F)cc3Cl)cc(=O)n12` [compound 43, 7-[[5-chloro-3-(trifluoromethyl)pyrazol-1-yl]methyl]-N-ethyl-5-oxo-2-(trifluoromethyl)thiazolo[3,2-a]pyrimidine-3-carboxamide], under “Table 3”, the EC50 is 362 nM.

For the compound `CNC(=O)c1c(C)sc2nc(Cc3cc(F)c(F)cc3Cl)cc(=O)n12` [compound 16, 7-[(2-chloro-4,5-difluoro-phenyl)methyl]-N,2-dimethyl-5-oxo-thiazolo[3,2-a]pyrimidine-3-carboxamide], where the note is “Table 3”, the EC50 worked out at 15500 nM.

Regarding `Cc1sc2nc(Cn3nc(C(F)(F)F)cc3Cl)cc(=O)n2c1-c1cccnc1F` [compound 157, 7-[[5-chloro-3-(trifluoromethyl)pyrazol-1-yl]methyl]-3-(2-fluoro-3-pyridyl)-2-methyl-thiazolo[3,2-a]pyrimidin-5-one], the EC50 (Table 3) turned out to be 13000 nM.

Turning to `CNC(=O)c1c(C)sc2nc(Cc3ccc(F)c(Cl)c3)cc(=O)n12` [Example 21.47, 7-[(3-chloro-4-fluoro-phenyl)methyl]-N,2-dimethyl-5-oxo-thiazolo[3,2-a]pyrimidine-3-carboxamide], the Max % (Table 2) is reported as 103%.

Take `Cc1sc2nc(Cn3nc(Cl)cc3C(F)(F)F)cc(=O)n2c1C1CC1` [compound 117, 7-[[3-chloro-5-(trifluoromethyl)pyrazol-1-yl]methyl]-3-cyclopropyl-2-methyl-thiazolo[3,2-a]pyrimidin-5-one]: the concentration giving a half-maximal response (EC50) (Table 3) is 1030 nM.

Regarding `C=Cc1c(C)sc2nc(CN(CC)c3ccc(F)cc3)cc(=O)n12` [Example 5.53, 7-((ethyl(4-fluorophenyl)amino)methyl)-2-methyl-3-vinyl-5H-thiazolo[3,2-a]pyrimidin-5-one], where the note is “Table 2”, the half-maximal effective concentration (EC50) was found to be 1300 nM and the Max % is 153%.

For the origin of these results see US9988400B2 (Genentech, Inc., priority 2013, dated 2018).
